Where a name gives a salt, the structure may show the parent alone.
Legend:
[1] = tested on: swelling of foot caused by egg white in rats; assay: Test of effects on swelling of foot caused by egg white in rats; assay type: in vivo; details: for effect on voix pedis swelling caused by egg white in rats: within 0.5 hours to 6 hours, versus physiological saline control group, in words
Method: Test grouping: 40 rats, bodyweight 200-220 g, randomly divided into 4 groups, 10 rats per group, i.e., physiological saline control group, bromfenac sodium group, bromfenac diethylamine salt group, and bromfenac trometamol salt group.
The rats of each test group were administered with physiological saline, solution of bromfenac sodium, solution of bromfenac diethylamine salt and solution of bromfenac trometamol salt, twice per day via lavage in lavage dose of 50 mL/Kg, for consecutive 7 days, before the last administration, volumes of voix pedis of normal right and left hindfeet of each rat were measured, and the measurement was performed by blood capillary volume method. The linedrawing position at ankle joint of rat was adjusted so that the volumes of voix pedis of right and left hindfeet were about 1 mL, 0.5 hours after the last administration, 0.1 mL of newly prepared 10% egg white liquid was subcutaneously injected to voix pedis of right and left hindfeet of rats respectively, and the volumes of voix pedis of right and left hindfeet of rats were measured again at 0.5, 1, 2, 4, 6 hours after injection of egg white, and swelling rate was calculated (voix pedis swelling rate=voix pedis volume at different time after injection of egg white−voix pedis volume at the same side before injection of egg white/voix pedis volume at the same side before injection of egg white), and the results were shown in Table 5.

[2] = Tissue distribution test (muscle tissue under skin after application to the back); details: rats; for time at which distribution in tissue reaches maximum values (peak concentrations): muscle tissue under skin; for concentration distributed in tissue compared with bromfenac sodium: muscle tissue; for concentration at 0 h / concentration at 2 h / concentration at 4 h / concentration at 6 h / concentration at 8 h / concentration at 10 h: rat, 1 g preparation, Concentration in muscle tissue; for concentration at 0 h / concentration at 2 h / concentration at 4 h / concentration at 6 h / concentration at 8 h / concentration at 10 h / Concentration in muscle tissue: n = 3
Method: Preparation of bromfenac salt solutions: 0.25 g samples of bromfenac sodium, bromfenac diethylamine salt as prepared in Example 1 and bromfenac trometamol salt as prepared in Example 2 were precisely weighed separately, placed in 25 ml volumetric flasks respectively, metered volume to obtain stock solutions for standby use.
Chromatography conditions: detector: ultraviolet absorption detector (wavelength: 266 nm). Chromatography column: octadecyl silica gel column (4.6 mm×150 mm, 5 μm). Mobile phase: precisely weighed ammonium acetate 3.85 g, added with water to the metered volume of 1000 mL. 700 mL of this solution was taken and added with 300 mL acetonitrile. Flow rate: 1.0 mL/min.
Plotting standard curves: 200 μl samples of blank tissue were taken, separately added with 50 μl of series standard solutions of bromfenac sodium, bromfenac diethylamine salt and bromfenac trometamol salt separately, added with 50 μl of internal standard respectively, to form sample solutions with equivalent tissue concentrations of bromfenac sodium, bromfenac diethylamine salt and bromfenac trometamol salt as 50, 100, 250, 500, 1000, 5000, 10000 ng/ml, which were separately weighed precisely to take 20 μl and injected into chromatography and separately assayed.
1) On the test day, removed short hair on the back of rats were with a electric hair clipper to expose surface layer of skin, while trying to avoid breaking skin during hair cutting, and then washed unhairing region with a large quantity of water;
2) anesthetized rats using 10% chloral hydrate in anesthetic agent dose of 3.5 ml/kg;
3) randomly divided the rats into 3 groups, 15 rats per group. On the unhairing region of back, the rats of 3 groups were separately administered with 1 g of bromfenac sodium, bromfenac diethylamine and Bromfenac trometamol preparations, and the administration regions were covered with freshness-keeping plastic film;
4) executed rats before administration (0 hours) and at 2 hours, 4 hours, 6 hours, 8 hours, 10 hours after administration, took muscle tissues under skin of administration sites;
5) simply washed muscle tissues with physiological saline, then absorbed excessive water with filter paper;
6) precisely weighed 1 g of muscle tissue, cut into pieces, homogenizing with 3 ml of physiological saline in electric grinding mill. A homogeneous muscle tissue homogenate was obtained after muscle tissue was ground completely;
7) took […] of tissue sample, added with 50 μL of an internal standard solution, mixed homogeneously, added with 1 mL of methanol, mixed by vortex for 1 min, centrifuged for 5 min (3500 rpm), separated and placed upper layer organic phase into another tube, blow-dried with 37° C. air, dissolved the residue by adding 100 μL of mobile phase, mixed by vortex, and took 20 μL to perform HPLC analysis.

[3] = Chemical stability in solid state (accelerated stability test at 60° C.); assay type: physicochemical; details: for change of content in accelerated test at 60° C.: solid state, in words
Method: HPLC Analysis Conditions:
Detector: ultraviolet absorption detector (wavelength: 266 nm).
Chromatography column: octadecyl silica gel column (4.0 mm×150 mm, 5 um).
Mobile phase: 3.85 g of ammonium acetate was precisely weighed, added with water to reach the metered volume of 1000 mL.

[4] = Chemical stability in aqueous state (25° C., dark); assay type: physicochemical; details: for degradation products and content changes in aqueous solution: dark conditions, in words
[5] = tested on: swelling of auricle caused by xylene in mice; assay: Test of effects on swelling of auricle caused by xylene in mice; assay type: in vivo; details: for effect on swelling of auricle caused by xylene in mice: in words; for Swelling degree: weight difference between two ears, lavage 50 mL/Kg of 1 g/100 ml solution twice per day for 7 days, mice
Method: Test grouping: 40 mice, bodyweight 20±2 g, randomly divided into 4 groups, 10 mice per group, i.e., physiological control group, bromfenac sodium group, bromfenac diethylamine salt group, and bromfenac trometamol salt group.
Test method: the mice of each test group were administered with physiological saline, solution of bromfenac sodium, solution of bromfenac diethylamine salt and solution of bromfenac trometamol salt, twice per day via lavage in lavage dose of 50 mL/Kg, for consecutive 7 days, 1 h after the last administration, xylene in dose of 0.05 mL/mouse was coated on right ears of mice of each test group, while their left ears were used as control, the mice were executed after 30 min, ear parts that were at the same place and had the same area were cut from both ears by a puncher with a diameter of 6 mm, and weighed with ten thousandth electronic analytical balance, and the weight difference between two ears was used as index of swelling.

[6] = 0.5 hours after injection of egg white
[7] = 0.5 hours after injection of egg white, lavage 50 mL/Kg twice per day for 7 days
[8] = 1.0 hours after injection of egg white
[9] = 2.0 hours after injection of egg white
[10] = 4.0 hours after injection of egg white
[11] = 6.0 hours after injection of egg white
[12] = Normal rats (before egg white), lavage 50 mL/Kg twice per day for 7 days

Row | Structure (SMILES) | voix pedis swelling rate [1, 6] | voix pedis volume [1, 7] [mL] | voix pedis swelling rate [1, 8] | voix pedis volume [1, 8] [mL] | voix pedis swelling rate [1, 9] | voix pedis volume [1, 9] [mL] | voix pedis swelling rate [1, 10] | voix pedis volume [1, 10] [mL] | voix pedis swelling rate [1, 11] | voix pedis volume [1, 11] [mL] | voix pedis swelling rate ([1]; Normal rats) | voix pedis volume [1, 12] [mL] | effect on voix pedis swelling caused by egg white in rats [1] | time at which distribution in tissue reaches maximum values (peak concentrations) [2] [h] | content (HPLC), solid state ([3]; 60° C., 2 weeks) [%] | content (HPLC), solid state ([3]; 60° C., 3 weeks) [%] | change of content in accelerated test at 60° C. [3] | content (HPLC), aqueous state ([4]; 25° C., dark, 2 weeks) [%] | content (HPLC), aqueous state ([4]; 25° C., dark, 3 weeks) [%] | degradation products and content changes in aqueous solution [4] | also measured
1 | Nc1c(CC(=O)O)cccc1C(=O)c1ccc(Br)cc1 [Bromfenac trometamol salt, bromfenac trometamol salt] | (0.63 ± 0.09) | 1.59 ± 0.09 | (0.57 ± 0.10) | 1.54 ± 0.11 | (0.44 ± 0.13) | 1.41 ± 0.13 | (0.20 ± 0.10) | 1.24 ± 0.10 | (0.10 ± 0.07) | 1.08 ± 0.08 | (0.63 ± 0.09) | 1.59 ± 0.09 | significantly inhibit | 2 | 99.4 | 99.2 | no significant substantial change | 99.3 | 99.1 | not observed | concentration distributed in tissue compared with bromfenac sodium [2]: significantly greater; concentration at 0 h ([2]; muscle tissue under skin of administration site, topical, 0 hours (before administration)): 0 ng/mL; concentration at 2 h ([2]; muscle tissue under skin of administration site, topical, 2 hours after administration of 1 g preparation on back skin): 852 ng/mL; concentration at 4 h ([2]; muscle tissue under skin of administration site, topical, 4 hours after administration of 1 g preparation on back skin): 1490 ng/mL; concentration at 6 h ([2]; muscle tissue under skin of administration site, topical, 6 hours after administration of 1 g preparation on back skin): 1100 ng/mL; concentration at 8 h ([2]; muscle tissue under skin of administration site, topical, 8 hours after administration of 1 g preparation on back skin): 790 ng/mL; concentration at 10 h ([2]; muscle tissue under skin of administration site, topical, 10 hours after administration of 1 g preparation on back skin): 201 ng/mL; effect on swelling of auricle caused by xylene in mice [5]: significant inhibition effects; Swelling degree [5]: 5.41 ± 0.47 mg
2 | Nc1c(CC(=O)[O-])cccc1C(=O)c1ccc(Br)cc1.[Na+] [Bromfenac sodium, 2-amino-3-(4-bromobenzoyl)phenylacetic acid sodium salt sesquialter hydrate, reference compound] | (0.58 ± 0.06) | 1.56 ± 0.11 | (0.53 ± 0.07) | 1.51 ± 0.10 | (0.40 ± 0.09) | 1.39 ± 0.11 | (0.22 ± 0.08) | 1.20 ± 0.10 | (0.06 ± 0.05) | 1.04 ± 0.06 | (0.58 ± 0.06) | 1.51 ± 0.11 | significantly inhibit | 2 | 99.3 | 99.1 | no significant substantial change | 99.4 | 99.1 | not observed | concentration at 0 h ([2]; in vivo, 0 hours (before administration)): 0 ng/mL; concentration at 2 h ([2]; in vivo, 2 hours after administration of 1 g preparation on back skin): 238 ng/mL; concentration at 4 h ([2]; in vivo, 4 hours after administration of 1 g preparation on back skin): 693 ng/mL; concentration at 6 h ([2]; in vivo, 6 hours after administration of 1 g preparation on back skin): 509 ng/mL; concentration at 8 h ([2]; in vivo, 8 hours after administration of 1 g preparation on back skin): 313 ng/mL; concentration at 10 h ([2]; in vivo, 10 hours after administration of 1 g preparation on back skin): 130 ng/mL; content (HPLC), solid state ([3]; 60° C., 1 week): 99.5%; content (HPLC), solid state ([3]; Initial): 99.6%; content (HPLC), aqueous state ([4]; 25° C., dark, 1 week): 99.5%; content (HPLC), aqueous state ([4]; Initial): 99.6%; effect on swelling of auricle caused by xylene in mice [5]: significant inhibition effects; Swelling degree [5]: 5.45 ± 0.36 mg
3 | Nc1c(CC(=O)O)cccc1C(=O)c1ccc(Br)cc1 [Bromfenac diethylamine salt, bromfenac diethylamine salt] | (0.65 ± 0.08) | 1.61 ± 0.08 | (0.58 ± 0.08) | 1.55 ± 0.09 | (0.41 ± 0.08) | 1.38 ± 0.06 | (0.23 ± 0.05) | 1.21 ± 0.06 | (0.08 ± 0.06) | 1.06 ± 0.08 | (0.65 ± 0.08) | 1.61 ± 0.08 | significantly inhibit | 2 | 99.3 | 99.2 | no significant substantial change | 99.4 | 99.2 | not observed | Concentration in muscle tissue ([2]; 0 hours (before administration)): 0 ng/mL; Concentration in muscle tissue ([2]; 2 hours after administration of 1 g preparation on back skin): 1092.1 ng/mL; Concentration in muscle tissue ([2]; 4 hours after administration of 1 g preparation on back skin): 2657.6 ng/mL; Concentration in muscle tissue ([2]; 6 hours after administration of 1 g preparation on back skin): 1803.7 ng/mL; Concentration in muscle tissue ([2]; 8 hours after administration of 1 g preparation on back skin): 1108.3 ng/mL; Concentration in muscle tissue ([2]; 10 hours after administration of 1 g preparation on back skin): 262.4 ng/mL; concentration distributed in tissue compared with bromfenac sodium [2]: significantly greater; content (HPLC), solid state ([3]; 60° C., 1 week): 99.5%; content (HPLC), solid state ([3]; Initial): 99.5%; content (HPLC), aqueous state ([4]; 25° C., dark, 1 week): 99.5%; content (HPLC), aqueous state ([4]; Initial): 99.5%; effect on swelling of auricle caused by xylene in mice [5]: significant inhibition effects; Swelling degree [5]: 5.37 ± 0.50 mg

Source: patent US20140039056A1, “BROMFENAC ORGANIC SALTS AND PREPARATION METHOD, COMPOSITION AND USE THEREOF” (SHENYANG XINGQI PHARMACEUTICAL CO., LTD., priority 2010, published 2014)
